# Assay results published in the NIST ThermoML archive (doi:10.1021/je060314n).
# Numbers after ± are expanded uncertainties.
# Legend:
# [1] = Liquid; for mass density: 298.15 K, 101.33 kPa, Vibrating tube method
# [2] = refractive index (Na D-line) (dimensionless); details: 298.15 K; 101.33 kPa; Liquid; Standard Abbe refractometry
mass density [1] [kg/m3],vapor or sublimation pressure ([1]; 418.69 K) [kPa],refractive index [2],vapor or sublimation pressure ([1]; 363.16 K) [kPa],vapor or sublimation pressure ([1]; 369.75 K) [kPa],Structure (SMILES)
870.88 ± 0.23,101.3 ± 2,1.3992 ± 0.0005,–,–,CCCCOC(=O)CC [butyl propanoate]
741.81 ± 0.16,–,1.3784 ± 0.0005,101.3 ± 2,–,CCCOCCC [dipropyl ether]
799.62 ± 0.14,–,1.3836 ± 0.0005,–,101.3 ± 2,CCCO [propan-1-ol]
